Molecular target: T1, kappa opioid receptor (KOR) (Homo sapiens, UniProt P41145)
T1 construct: host or cells: CHO-K1
Experiment: cell-based
Conditions: kOR cAMP IC50, CHO-K1 cells expressing kOR; after activation with dynorphin B
Description: KOR cAMP Antagonist Assay

T1 sequence (P41145 whole entry): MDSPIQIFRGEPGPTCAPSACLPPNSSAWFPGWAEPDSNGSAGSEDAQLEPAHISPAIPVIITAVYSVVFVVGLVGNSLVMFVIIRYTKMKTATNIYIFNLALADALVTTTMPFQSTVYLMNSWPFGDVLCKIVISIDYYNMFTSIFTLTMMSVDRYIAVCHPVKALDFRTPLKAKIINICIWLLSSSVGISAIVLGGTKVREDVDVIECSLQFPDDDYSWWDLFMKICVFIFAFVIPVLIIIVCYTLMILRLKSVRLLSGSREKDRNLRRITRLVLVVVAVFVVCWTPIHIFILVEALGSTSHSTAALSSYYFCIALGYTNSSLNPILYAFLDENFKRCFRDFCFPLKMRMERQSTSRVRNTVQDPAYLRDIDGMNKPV

Structure (SMILES)	IC50 [nM]
CN(C)[C@H](CNC(=O)[C@@H]1C[C@]1(C)c1ccccc1)Cc1ccc(C(N)=O)cc1Cl [Compound B-7, 3-chloro-4-((S)-2-(dimethylamino)-3-((1R,2S)-2-methyl-2-phenylcyclopropane-1-carboxamido)propyl)benzamide]	< 100
CN(C)[C@H](CNC(=O)[C@H]1C[C@@H]1c1ccccc1)Cc1ccc(O)cc1 [Compound B-18, (1S,2S)—N—((S)-2-(dimethylamino)-3-(4-hydroxyphenyl)propyl)-2-phenylcyclopropane-1-carboxamide]	100 to 1000
CN(C)[C@H](CNC(=O)[C@@H]1C[C@@]1(C)c1ccccc1)Cc1ccc(O)cc1F [Compound B-44, (1R,2R)—N—((S)-2-(dimethylamino)-3-(2-fluoro-4-hydroxyphenyl)propyl)-2-methyl-2-phenylcyclopropane-1-carboxamide]	> 1000
CN(C)[C@H](CNC(=O)[C@@H]1C[C@]1(C)c1ccccc1)Cc1cc(F)c(O)c(Cl)c1 [Compound B-24, (1R,2S)—N—((S)-3-(3-chloro-5-fluoro-4-hydroxyphenyl)-2-(dimethylamino)propyl)-2-methyl-2-phenylcyclopropane-1-carboxamide]	100 to 1000
CNC(=O)c1cc(C)c(C[C@@H](CNC(=O)c2ccccc2)N(C)C)c(C)c1 [Compound C-45]	> 1000
C[C@H](CC(=O)NC[C@H](Cc1ccc(C(N)=O)cc1)N(C)C)c1ccccc1 [Compound A-10, 4-((S)-2-(dimethylamino)-3-((R)-3-phenylbutanamido)propyl)benzamide]	100 to 1000
Cc1ccc(C(=O)NC[C@H](Cc2ccc(C(N)=O)cc2)N(C)C)c(C)c1 [Compound C-67, (S)—N-(3-(4-carbamoylphenyl)-2-(dimethylamino)propyl)-2,4-dimethylbenzamide]	> 1000

Molecular target: T2, mu opioid receptor (MOR) (Homo sapiens, UniProt P35372)
Experiment: MOR cAMP agonist assay
Conditions: not given

T2 sequence (P35372 whole entry): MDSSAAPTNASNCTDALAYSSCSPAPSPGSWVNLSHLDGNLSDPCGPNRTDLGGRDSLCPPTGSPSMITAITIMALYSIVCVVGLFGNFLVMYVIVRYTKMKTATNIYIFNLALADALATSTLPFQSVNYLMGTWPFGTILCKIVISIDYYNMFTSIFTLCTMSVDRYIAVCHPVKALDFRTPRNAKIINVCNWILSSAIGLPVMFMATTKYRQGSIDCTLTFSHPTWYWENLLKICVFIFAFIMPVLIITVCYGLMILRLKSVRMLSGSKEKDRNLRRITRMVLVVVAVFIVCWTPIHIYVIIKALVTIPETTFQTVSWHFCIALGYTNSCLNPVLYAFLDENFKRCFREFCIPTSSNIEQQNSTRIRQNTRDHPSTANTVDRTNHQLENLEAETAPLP

Structure (SMILES)	EC50 [nM]
CN(C)[C@H](CNC(=O)[C@@H]1C[C@]1(C)c1ccccc1)Cc1ccc(C(N)=O)cc1Cl [Compound B-7, 3-chloro-4-((S)-2-(dimethylamino)-3-((1R,2S)-2-methyl-2-phenylcyclopropane-1-carboxamido)propyl)benzamide]	< 100
CCNC(=O)c1ccc(C[C@@H](CNC(=O)[C@@H]2C[C@]2(C)c2ccccc2)N(C)C)cc1F [Compound B-34, 4-((S)-2-(dimethylamino)-3-((1R,2S)-2-methyl-2-phenylcyclopropane-1-carboxamido)propyl)-N-ethyl-2-fluorobenzamide]	< 100
CC[C@@]1(c2ccccc2)C[C@H]1C(=O)NC[C@H](Cc1ccc(C(=O)NC)c(F)c1)N(C)C [Compound B-21, 4-((S)-2-(dimethylamino)-3-((1R,2R)-2-ethyl-2-phenylcyclopropane-1-carboxamido)propyl)-2-fluoro-N-methylbenzamide]	< 100
CNC(=O)c1cc(F)c(C[C@@H](CNC(=O)[C@@H]2C[C@]2(C)c2ccccc2)N(C)C)cc1F [Compound B-28, 4-((S)-2-(dimethylamino)-3-((1R,2S)-2-methyl-2-phenylcyclopropane-1-carboxamido)propyl)-2,5-difluoro-N-methylbenzamide]	< 100
CCNC(=O)c1ccc(C[C@@H](CNC(=O)[C@@H]2C[C@@]2(C)c2ccccc2)N(C)C)cc1F [Compound B-23, 4-((S)-2-(dimethylamino)-3-((1R,2R)-2-methyl-2-phenylcyclopropane-1-carboxamido)propyl)-N-ethyl-2-fluorobenzamide]	< 100
CNC(=O)c1ccc(C[C@@H](CNC(=O)[C@H]2C[C@]2(C)c2ccccc2)N(C)C)cc1F [Compound B-22, 4-((S)-2-(dimethylamino)-3-((1S,2S)-2-methyl-2-phenylcyclopropane-1-carboxamido)propyl)-2-fluoro-N-methylbenzamide]	< 100
CN(C)[C@H](CNC(=O)[C@@H]1C[C@@]1(C)c1ccccc1)Cc1ccc(O)c(Cl)c1 [Compound B-59, (1R,2R)—N—((S)-3-(3-chloro-4-hydroxyphenyl)-2-(dimethylamino)propyl)-2-methyl-2-phenylcyclopropane-1-carboxamide]	< 100
CN(C)[C@H](CNC(=O)[C@@H]1C[C@@]1(C)c1ccccc1)Cc1ccc2[nH]c(=O)oc2c1 [Compound B-53, (1R,2R)—N—((S)-2-(dimethylamino)-3-(2-oxo-2,3-dihydrobenzo[d]oxazol-6-yl)propyl)-2-methyl-2-phenylcyclopropane-1-carboxamide]	< 100
CNC(=O)c1cc(C)c(C[C@@H](CNC(=O)[C@@H]2C[C@@]2(C)c2ccccc2)N(C)C)cc1F [Compound B-26, 4-((S)-2-(dimethylamino)-3-((1R,2R)-2-methyl-2-phenylcyclopropane-1-carboxamido)propyl)-2-fluoro-N,5-dimethylbenzamide]	< 100
CN1Cc2cc(O)ccc2C[C@H]1CNC(=O)[C@@H]1C[C@@]1(C)c1ccccc1 [Compound B-51, (1R,2R)—N—(((S)-7-hydroxy-2-methyl-1,2,3,4-tetrahydroisoquinolin-3-yl)methyl)-2-methyl-2-phenylcyclopropane-1-carboxamide]	< 100
CNC(=O)c1c(F)cc(C[C@@H](CNC(=O)[C@@H]2C[C@]2(C)c2ccccc2)N(C)C)cc1F [Compound B-27, 4-((S)-2-(dimethylamino)-3-((1R,2S)-2-methyl-2-phenylcyclopropane-1-carboxamido)propyl)-2,6-difluoro-N-methylbenzamide]	< 100
CN(C)[C@H](CNC(=O)[C@@H]1C[C@@]1(C)c1ccccc1)Cc1cc2cn[nH]c2cc1Cl [Compound B-52, (1R,2R)—N—((S)-3-(6-chloro-2H-indazol-5-yl)-2-(dimethylamino)propyl)-2-methyl-2-phenylcyclopropane-1-carboxamide]	< 100
CN1Cc2cc(O)ccc2C[C@H]1CNC(=O)[C@@H]1C[C@]1(C)c1ccccc1 [Compound B-50, (1R,2S)—N—(((S)-7-hydroxy-2-methyl-1,2,3,4-tetrahydroisoquinolin-3-yl)methyl)-2-methyl-2-phenylcyclopropane-1-carboxamide]	< 100
CN(CC1CC1)[C@H](CNC(=O)[C@@H]1C[C@]1(C)c1ccccc1)Cc1ccc2[nH]c(=O)oc2c1 [Compound B-32, (1R,2S)—N—((S)-2-((cyclopropylmethyl)(methyl)amino)-3-(2-oxo-2,3-dihydrobenzo[d]oxazol-6-yl)propyl)-2-methyl-2-phenylcyclopropane-1-carboxamide]	100 to 1000
CN(CC(F)(F)F)[C@H](CNC(=O)[C@@H]1C[C@]1(C)c1ccccc1)Cc1ccc(C(=O)NC2CC2)c(F)c1 [Compound B-29, N-cyclopropyl-2-fluoro-4-((S)-2-(methyl(2,2,2-trifluoroethyl)amino)-3-((1R,2S)-2-methyl-2-phenylcyclopropane-1-carboxamido)propyl)benzamide]	< 100
CN(C)[C@H](CNC(=O)[C@@H]1C[C@@H]1c1ccccc1)Cc1ccc(O)cc1 [Compound B-25, (1R,2S)—N—((S)-2-(dimethylamino)-3-(4-hydroxyphenyl)propyl)-2-phenylcyclopropane-1-carboxamide]	100 to 1000

Molecular target: T2, mu opioid receptor (MOR)
Experiment: MOR GTPγS agonist assay
Type: biochemical
Parameters: host or cells: CHO-K1
Conditions: membranes of CHO cells over-expressing MOR; SPA beads; read-out: MOR GTPγS EC50
Description: Membranes obtained from the stable cell lines over-expressing MOR were subjected to GTPγS assay using SPA beads (Perkin Elmer, Cat #RPNQ0001).

Structure (SMILES)	EC50 [nM]
Cc1cc(O)cc(C)c1C[C@@H](CNC(=O)c1ccc(Cl)c(F)c1)N(C)C [Compound C-6, (S)-4-chloro-N-(2-(dimethylamino)-3-(4-hydroxy-2,6-dimethylphenyl)propyl)-3-fluorobenzamide]	< 100
Cc1cc(O)cc(C)c1C[C@@H](CNC(=O)c1cccc(Cl)c1)N(C)C [Compound C-25]	< 100
CNC(=O)c1cc(C)c(C[C@@H](CNC(=O)c2ccccc2)N(C)C)c(C)c1 [Compound C-45]	< 100
CNC(=O)c1ccc(C[C@@H](CNC(=O)c2cccc(Cl)c2)N(C)C)c(Cl)c1 [Compound C-41]	< 100
CNC(=O)c1cc(C)c(C[C@@H](CNC(=O)c2ccc(Cl)cc2Cl)N(C)C)c(C)c1 [Compound C-16]	< 100
CNC(=O)c1cc(C)c(C[C@@H](CNC(=O)c2ccc(Cl)c(F)c2)N(C)C)c(C)c1 [Compound C-13]	< 100
CNC(=O)c1cc(C)c(C[C@@H](CNC(=O)c2ccc(C)cc2C)N(C)C)c(C)c1 [Compound C-18]	< 100
CNC(=O)c1cc(C)c(C[C@@H](CNC(=O)c2ccc(Cl)cc2)N(C)C)c(C)c1 [Compound C-11]	< 100
Cc1cnc(C(=O)NC[C@H](Cc2ccc3n[nH]cc3c2)N(C)C)c(C)c1 [Compound C-52]	> 1000
CN1Cc2cc(O)ccc2C[C@H]1CNC(=O)c1cccc(Cl)c1 [Compound C-36, (S)-3-chloro-N-((7-hydroxy-2-methyl-1,2,3,4-tetrahydroisoquinolin-3-yl)methyl)benzamide]	< 100
CN(C)[C@H](CNC(=O)c1ccc(Cl)c(F)c1)Cc1ccc(O)cc1Cl [Compound C-19]	100 to 1000
Cc1ccc(C(=O)NC[C@H](Cc2ccc(C(N)=O)cc2)N(C)C)c(C)c1 [Compound C-67, (S)—N-(3-(4-carbamoylphenyl)-2-(dimethylamino)propyl)-2,4-dimethylbenzamide]	< 100
CNC(=O)c1cc(C)c(C[C@@H](CNC(=O)c2ccc(Cl)cc2C)N(C)C)c(C)c1 [Compound C-15]	< 100
CN(C)[C@H](CNC(=O)c1ccc(Cl)cc1Cl)Cc1ccc2n[nH]cc2c1 [Compound C-50, (S)-2,4-dichloro-N-(2-(dimethylamino)-3-(1H-indazol-5-yl)propyl) benzamide]	100 to 1000
CN(C)[C@H](CNC(=O)c1ccc(Cl)c(F)c1)Cc1ccc2n[nH]cc2c1 [Compound C-65, (S)-4-chloro-N-(2-(dimethylamino)-3-(2H-indazol-5-yl)propyl)-3-fluorobenzamide]	< 100
CN(CC1CC1)[C@H](CNC(=O)c1ccc(Cl)c(Cl)c1)Cc1ccc2[nH]ncc2c1 [Compound C-62, (S)-3,4-dichloro-N-(2-((cyclopropylmethyl)(methyl)amino)-3-(1H-indazol-5-yl)propyl)benzamide]	100 to 1000
CNC(=O)c1cc(C)c(C[C@@H](CNC(=O)c2cccc(Cl)c2)N(C)C)c(C)c1 [Compound C-44]	< 100
CNC(=O)c1cc(C)c(C[C@@H](CNC(=O)c2ncc(Cl)cc2Cl)N(C)C)c(C)c1 [Compound C-48]	100 to 1000
CNC(=O)c1cc(C)c(C[C@@H](CNC(=O)c2cc(Cl)cc(Cl)c2)N(C)C)c(C)c1 [Compound C-12]	< 100

Source: patent US20210147343A1 (priority 2018, published 2021)
